pIC50: −log10 of the molar value. Activity calls are given as the source filed them. The rule behind the calls is not given here.
Columns and labels:
[1] = system: Human immunodeficiency virus 1; test: Antiviral activity against HIV1 3B infected human TZM-bl cells assessed as inhibition of viral replication by luciferase reporter assay; assay type: functional, organism-based; conditions: for pIC50: Human immunodeficiency virus 1, 3B, TZM-bl, read-out: IC50; for IC50: tzm-bl
[2] = Cytotoxicity in human TZM-bl cells by MTT assay; assay type: cell-based
[3] = Selectivity index, ratio of CC50 for human TZM-bl cells to IC50 for HIV1 3B; assay type: functional
Albumin = Albumin (Homo sapiens, UniProt P02768); test: Binding affinity to human serum albumin by fluorescence quenching assay; assay type: ADME; conditions: isolated protein
Influenza A virus = test: Antiviral activity against Influenza A virus (A/Vietnam/1194/2004(H5N1)) infected in MDCK cells assessed as inhibition of viral replication by plaque reduction assay; assay type: functional, organism-based
[4] = Cytotoxicity against MDCK cells by MTT assay; assay type: cell-based, Canis lupus familiaris; conditions: dog
[5] = Selectivity index, ratio of CC50 for MDCK cells to IC50 for Influenza A virus (A/Vietnam/1194/2004(H5N1)); assay type: functional
[6] = system: Human immunodeficiency virus 1; test: Antiviral activity against HIV1 3B infected human TZM-bl cells assessed as inhibition of viral replication at 10 uM treated immediately after infection by luciferase reporter assay; assay type: functional, organism-based
[7] = system: Human immunodeficiency virus 1; test: Antiviral activity against HIV1 3B infected human TZM-bl cells assessed as inhibition of viral replication at 10 uM treated 2 hrs after viral infection by luciferase reporter assay; assay type: functional, organism-based

Sequence of Albumin (P02768 whole entry): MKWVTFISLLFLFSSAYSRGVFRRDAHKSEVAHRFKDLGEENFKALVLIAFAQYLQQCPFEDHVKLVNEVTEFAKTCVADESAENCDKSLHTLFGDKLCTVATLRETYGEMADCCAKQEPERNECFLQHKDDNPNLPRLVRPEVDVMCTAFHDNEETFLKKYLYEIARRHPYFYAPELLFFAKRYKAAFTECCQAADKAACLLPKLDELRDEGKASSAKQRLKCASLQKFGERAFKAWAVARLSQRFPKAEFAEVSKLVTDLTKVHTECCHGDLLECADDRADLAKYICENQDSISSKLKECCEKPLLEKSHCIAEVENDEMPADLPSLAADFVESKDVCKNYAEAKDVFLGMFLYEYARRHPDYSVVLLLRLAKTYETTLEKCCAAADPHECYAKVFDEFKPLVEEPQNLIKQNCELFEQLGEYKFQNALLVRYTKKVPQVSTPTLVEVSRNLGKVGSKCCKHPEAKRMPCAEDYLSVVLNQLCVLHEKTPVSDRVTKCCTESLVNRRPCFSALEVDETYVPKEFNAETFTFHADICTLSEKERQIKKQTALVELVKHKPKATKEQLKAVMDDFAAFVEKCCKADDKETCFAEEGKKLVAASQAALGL

Row | Compound | pIC50 [1] | CC50 [2] [µM] | Ratio CC50/IC50 [3] | Ka (Albumin) | pIC50 (Influenza A virus) | CC50 [4] [µM] | Ratio CC50/IC50 [5] | inhibition [6] | inhibition [7] | IC50 [1]
1 | Cc1cc2c(c(O)c1-c1c(C)cc3c(c1O)/C(=C/NCCCCC(=O)[O-])C(=O)C(O)=C3C(C)C)/C(=C/NCCCCC(=O)[O-])C(=O)C(O)=C2C(C)C.[Na+].[Na+] | 5.77 | 32.9 | 19.25 | 2.4288 ×10⁴ L/mol | 4.71 | > 43.8 | >2.25 | – | – | –
2 | Cc1cc2c(c(O)c1-c1c(C)cc3c(c1O)/C(=C/N[C@@H](Cc1ccc(O)cc1)C(=O)[O-])C(=O)C(O)=C3C(C)C)/C(=C/N[C@@H](Cc1ccc(O)cc1)C(=O)[O-])C(=O)C(O)=C2C(C)C.[Na+].[Na+] | 5.79 | 54.8 | 33.81 | 7.5353 ×10⁴ L/mol | 4.43 | > 37.5 | >1 | – | – | –
3 | Cc1cc2c(c(O)c1-c1c(C)cc3c(c1O)/C(=C/N[C@@H](C)C(=O)[O-])C(=O)C(O)=C3C(C)C)/C(=C/N[C@@H](C)C(=O)[O-])C(=O)C(O)=C2C(C)C.[Na+].[Na+] | 5.91 | 56.2 | 46.09 | 1.0392 ×10⁵ L/mol | 6.06 | > 47.3 | >54.41 | Active | inactive | –
4 | Cc1cc2c(c(O)c1-c1c(C)cc3c(c1O)/C(=C/NCCCCCC(=O)[O-])C(=O)C(O)=C3C(C)C)/C(=C/NCCCCCC(=O)[O-])C(=O)C(O)=C2C(C)C.[Na+].[Na+] | 5.68 | 31.8 | 15.19 | 3.2203 ×10⁴ L/mol | 4.37 | > 42.3 | >1 | – | – | –
5 | NC12CC3CC(CC(C3)C1)C2 [AMANTADINE] | – | – | – | – | 5.62 | > 220 | >92.59 | – | – | –
6 | CC(=O)N[C@H]1[C@H]([C@H](O)[C@H](O)CO)OC(C(=O)O)=C[C@@H]1NC(=N)N [ZANAMIVIR] | – | – | – | – | 6.92 | > 100 | >836 | – | – | –
7 | Cc1cc2c(c(O)c1-c1c(C)cc3c(c1O)/C(=C/NC(C(=O)[O-])c1ccc(O)cc1)C(=O)C(O)=C3C(C)C)/C(=C/NC(C(=O)[O-])c1ccc(O)cc1)C(=O)C(O)=C2C(C)C.[Na+].[Na+] (stereo not given) | 5.87 | 22.2 | 16.54 | 2.1607 ×10⁴ L/mol | 5.11 | > 38.8 | >5 | – | – | –
8 | Cc1cc2c(c(O)c1-c1c(C)cc3c(c1O)/C(=C/NC(C)(C)C(=O)[O-])C(=O)C(O)=C3C(C)C)/C(=C/NC(C)(C)C(=O)[O-])C(=O)C(O)=C2C(C)C.[Na+].[Na+] | 5.86 | 99 | 71.19 | 1.9125 ×10⁵ L/mol | 5.98 | > 45.5 | >43.37 | Active | inactive | –
9 | COC(=O)[C@H](Cc1c[nH]c2ccccc12)N/C=C1\C(=O)C(O)=C(C(C)C)c2cc(C)c(-c3c(C)cc4c(c3O)/C(=C/N[C@@H](Cc3c[nH]c5ccccc35)C(=O)OC)C(=O)C(O)=C4C(C)C)c(O)c21 | – | 22 | – | 2.262 ×10³ L/mol | 5.14 | > 36.3 | >5 | – | – | Not Active
10 | enfuvirtide | 7.01 | – | – | – | – | – | – | Active | inactive | –
11 | CCOC(=O)CN/C=C1\C(=O)C(O)=C(C(C)C)c2cc(C)c(-c3c(C)cc4c(c3O)/C(=C/NCC(=O)OCC)C(=O)C(O)=C4C(C)C)c(O)c21 | – | 25.7 | – | 1.9028 ×10² L/mol | 5.01 | > 48.5 | >5 | – | – | Not Active
12 | COC(=O)C(N/C=C1\C(=O)C(O)=C(C(C)C)c2cc(C)c(-c3c(C)cc4c(c3O)/C(=C/NC(C(=O)OC)c3ccccc3)C(=O)C(O)=C4C(C)C)c(O)c21)c1ccccc1 (stereo not given) | – | 31.5 | – | 4.2658 ×10⁴ L/mol | 5.09 | > 41.1 | >5 | – | – | Not Active
13 | Cc1cc2c(c(O)c1-c1c(C)cc3c(c1O)/C(=C/N[C@@H](CO)C(=O)[O-])C(=O)C(O)=C3C(C)C)/C(=C/N[C@@H](CO)C(=O)[O-])C(=O)C(O)=C2C(C)C.[Na+].[Na+] | 5.54 | 68.3 | 23.72 | 5.7756 ×10⁴ L/mol | 4.34 | > 45.3 | >1 | – | – | –

Reference: ChEMBL document CHEMBL1949531, “Synthesis and antiviral activities of novel gossypol derivatives” (Bioorg Med Chem Lett, 2012)
